Patent US20180207294A1, “NON-ALCOHOLIC FATTY LIVER REGULATING FACTOR 14-3-3 PROTEIN” (Korea University Research and Business Foundation, priority 2015, published 2018)

Key:
[1] = tested on: primary mouse hepatocytes; assay: Triglyceride colorimetric assay, primary mouse hepatocytes; type: cell-based; conditions: primary mouse hepatocytes; 14-3-3 overexpression; 200 μM oleic acid 72 hours; FIG. 10A
Description: (§1) A triglyceride (neutral fat) is a type of fatty acid and is used as an index of a fat content. A biochemical lipid test was carried out by measuring an amount of triglycerides. HepG2 cells and primary mouse hepatocytes were separately seeded in a 6-well plate at a density of 4×10^5 cells per each well, and then transfected with GFP-14-3-3β DNA (1 μg) or GFP-14-3-3γ DNA (1 μg) and si-14-3-3β (10 μM, Santa Cruz) or si-14-3-3γ (10 μM, Santa Cruz) using an E-fection plus reagent (Lugen). A ratio of DNA to the E-fection plus reagent was 1:2, and this method was performed according to a manufacturer's manual. After transfection, the cells were treated with 200 μM of oleic acid (OA) for 72 hours, and the amount of triglycerides was measured using a triglyceride colorimetric assay kit (Cayman Chemical). The corresponding cells were washed with ice-cold PBS and then scraped using a standard diluent assay reagent, the scrapping process was repeated using a sonicator 20 times to lyse the cells, and the lysed cells were reacted with an enzyme buffer solution for 15 minutes, followed by measurement using an ELISA reader (Bio-Rad Laboratories, Inc) at a wavelength of 550 nm.

HepG2 cells = assay: Triglyceride colorimetric assay, HepG2 cells; type: cell-based; conditions: 14-3-3 overexpression, 200 μM oleic acid 72 hours, FIG. 10A
Description: as §1

PPARγ2 deletion mutants [2] = molecular target: T1, PPARγ2 deletion mutants (Homo sapiens, UniProt P37231); assay: GST-pull down assay with PPARγ2 deletion mutants (HEK-293T); type: binding; conditions: FIG. 3B, 3C
T1 construct: expressed in transfected cells; host or cells: HEK-293T
T1 sequence (P37231 139-505): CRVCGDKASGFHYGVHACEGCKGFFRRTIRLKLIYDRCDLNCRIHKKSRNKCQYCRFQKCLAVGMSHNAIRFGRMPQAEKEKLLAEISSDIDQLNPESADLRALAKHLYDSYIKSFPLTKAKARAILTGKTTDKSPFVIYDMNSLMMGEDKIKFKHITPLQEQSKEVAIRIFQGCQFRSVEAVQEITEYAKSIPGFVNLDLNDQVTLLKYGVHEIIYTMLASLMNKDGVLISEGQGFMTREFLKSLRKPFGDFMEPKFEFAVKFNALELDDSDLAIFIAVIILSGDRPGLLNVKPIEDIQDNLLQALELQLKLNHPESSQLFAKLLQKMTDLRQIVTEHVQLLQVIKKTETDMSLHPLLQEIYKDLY
Description: (§2) The PPARγ2 protein has been reported to consist of an activation function 1 (AF-1, amino acids 1-138) domain, a DNA-binding domain (DBD, amino acids 139-203), a hinge region (amino acids 204-310), and an activation function 2 (AF-2, amino acids 311-505) domain (see FIG. 3A). Thus, GST-pull down assay was conducted to verify which domain part of PPARγ2 was bound to 14-3-3β and 14-3-3γ.
(§3) HEK-293T cells were seeded in a 100 mm plate at a density of 2×10^6 cells per each well, and then transfected with Flag-PPARγ2 (1-505) DNA (4 μg), Flag-PPARγ2 (1-310) DNA (4 μg), Flag-PPARγ2 (139-505) DNA (4 μg), and mGST-14-3-3β (4 μg) or mGST-14-3-3γ (4 μg) using an E-fection plus reagent (Lugen). For Flag-PPARγ2 (1-310) DNA and Flag-PPARγ2 (139-505) DNA, DNA fragments amplified through polymerase chain reaction (PCR) were cloned into a pCMV-3Tag-1 vector using restriction enzymes Xhol and Apal. A ratio of DNA to the E-fection plus reagent was 1:2, and this method was performed according to a manufacturer's manual. The corresponding cells were washed with ice-cold PBS and lysed using 500 μl/well of a lysis buffer (150 mM NaCl, 1 mM EDTA, 1% Nonidet P-40, 5% glycerol, 25 mM tris-HCl, pH 7.5, protease inhibitor added), and the lysed cells were centrifuged at 10,000×g and 4° C. for 10 minutes to extract proteins. Thereafter, 1,000 μg of the proteins was reacted with 20 μl of glutathione Sepharose 4B beads (GE Healthcare, Buckinghamshire, UK) for 6 hours, and then washing of the beads with 1 ml of ice-cold PBS was repeated 5 times, and the beads were boiled at 100° C. for 10 minutes, followed by 10% SDS-PAGE gel separation and western blotting. A ratio of GST antibodies (Santa Cruz) to Flag antibodies (Santa Cruz) was 1:3000. The detection of each protein was performed using West Pico ECL (Thermo scientific, Rockford, Ill.) and identified in a darkroom.

PPARγ2 deletion mutants [3] = molecular target: T2, PPARγ2 deletion mutants (Homo sapiens, UniProt P37231); assay: as above; type: binding; conditions: FIG. 3B, 3C; remark: listed apart in the source
T2 construct: expressed in transfected cells; host or cells: HEK-293T
T2 sequence (P37231 1-310): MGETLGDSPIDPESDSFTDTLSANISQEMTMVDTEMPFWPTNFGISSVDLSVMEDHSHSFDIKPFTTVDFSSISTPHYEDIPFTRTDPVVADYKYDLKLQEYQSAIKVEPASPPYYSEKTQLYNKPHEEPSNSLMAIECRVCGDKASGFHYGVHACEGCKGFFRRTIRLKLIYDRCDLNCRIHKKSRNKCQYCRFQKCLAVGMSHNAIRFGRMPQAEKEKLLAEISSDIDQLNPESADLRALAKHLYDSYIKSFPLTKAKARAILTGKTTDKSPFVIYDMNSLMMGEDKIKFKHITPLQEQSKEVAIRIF
Description: as §2, §3

| binding to PPARγ2 deletion mutant (139-505) (PPARγ2 deletion mutants [2]) | binding to PPARγ2 deletion mutant (1-310) (PPARγ2 deletion mutants [3]) | Substance | triglyceride accumulation [1] | triglyceride accumulation (HepG2 cells) |
| --- | --- | --- | --- | --- |
| bound | bound | 14-3-3β: 14-3-3 isoform protein, overexpressed by DNA transfection; regulating factor that increases transcriptional activity of PPARγ2 | further increased | further increased |
| bound | bound | 14-3-3γ: 14-3-3 isoform protein, overexpressed by DNA transfection; regulating factor that decreases transcriptional activity of PPARγ2 | reduced triglyceride accumulation | reduced triglyceride accumulation |
